Experimental data reported in patent publication US20070254843A1, “Methods for treating bone associated diseases by the use of methionine aminopeptidase-2 inhibitors” (Praecis Pharmaceuticals Incorporated, priority 2006, published 2007).

Columns and labels:
CTX-I = experiment: Urinary CTX-I ELISA in rat PG-PS arthritis model; format: in vivo; conditions: 1, 5 and 10 mg/kg p.o. qod
Method: ELISAs for cartilage and bone biochemical turnover markers. The amount of COMP in serum was measured with a competitive enzyme immunoassay (MD Biosciences, Inc) according to the manufacturer's instructions. The detection limit of this ELISA was 0.2 U/L. Helical peptide (amino acids 620 to 633) from the α1 chain of bone-specific human CTX-I was measured either in cell culture supernatants of primary human OC precursors cultured as described above, or in urine with a competitive enzyme immunoassay (Quidel Corporation). The detection limit of this ELISA was 8 μg/L. All CTX-I measurements in urine were corrected for urinary creatinine excretion for each sample to account for potential differences in renal clearance rates among the different study groups. Urinary creatinine was measured with a colorimetric assay (Quidel Corporation).
To assess the activity of the MetAP-2 inhibitor on systemic bone resorption in vivo, the amount of systemic CTX-I in urine was measured and corrected for urinary creatinine excretion after conclusion of the study.

[1] = test system: primary human OC precursors; experiment: Cytotoxicity in OC precursor culture; format: cell-based; conditions: concentrations up to 100 nM
Method: (§1) The instant invention features such an inhibitor. In order to investigate the activity of the MetAP-2 inhibitor on osteoclast (OC) differentiation and bone resorption in vitro, yet another cell type critically associated with R^A pathogenesis in an in vitro osteoclastogenesis model was utilized. Primary human OC precursors were cultured for 7 days in the presence of M-CSF and RANKL, and vehicle or increasing concentrations of the MetAP-2 inhibitor.

HUVEC = conditions: in vitro; cited from earlier work
PG-PS-induced arthritis [2] = experiment: Clinical (histopathological) assessment of PG-PS arthritis, joint histology score; format: in vivo, rat; conditions: for Total arthritis score / Bone Resorption score / Cartilage erosion score / Cell infiltration score / Pannus formation score: PG-PS arthritis; for Bone Resorption score / Cartilage erosion score / Cell infiltration score / Pannus formation score: score 0-4
Method: Clinical assessment of PG-PS arthritis. The histopathological evaluation was performed on the left and right hind joints of randomly selected animals from each study group by an independent histopathologist without knowledge of specific interventions. After completion of the study, the left and right hind ankles were removed, fixed in 10% buffered formalin, decalcified in 5% formic acid, paraffin-embedded, sectioned, and H&E stained for histological evaluation. A joint histology scoring system which grades the severity of 4 histopathological processes (cell infiltration, pannus formation, cartilage erosion, bone resorption), was used to quantify hind joint involvement in the PG-PS arthritis model (36). Dependent on the assigned score for each parameter (0=normal, 1=minimal, 2=mild, 3=moderate, 4=marked), the maximum total score per ankle is 16, and 32 per animal.
It was investigated whether the protective activity of the MetAP-2 inhibitor in this animal model of arthritis, which is characterized by aggressive synovitis, extensive pannus formation, cartilage degradation and focal bone erosion, was mediated through regression in the severity of all clinical indices tested, or whether this activity was targeting specific pathogenic processes.
A joint histology scoring system which grades the severity of 4 histopathological processes (cell infiltration, pannus formation, cartilage erosion, bone resorption) was used (O'Byrne (1991) Agents and Actions 134:239-241).

[3] = test system: primary human osteoclast (OC) precursors; experiment: Osteoclast differentiation assay (TRAP staining); format: cell-based
Method: Osteoclast differentiation assays. Primary human osteoclast (OC) precursors (Cambrex) were seeded at 10,000 cells/well (50,000 cells/ml) in osteoclast precursor growth medium (Cambrex). The cells were cultured for 7 days in the presence of either M-CSF (33 ng/ml), M-CSF (33 ng/ml) and RANKL (33 ng/ml), or in the presence of both cytokines and different concentrations of the MetAP-2 inhibitor. OC differentiation was determined by staining for the OC marker TRAP, using a leukocyte acid phosphatase kit (Sigma). Briefly, after 7 days in culture, the cells were rinsed once with PBS, fixed with 37% formaldehyde in acetone-citrate buffer for 1 min, and stained for development of red color according to the manufacturer's instructions.
as §1

PG-PS-induced arthritis [4] = experiment: Microfocal computed tomography of hind joints in rat PG-PS arthritis model; format: in vivo
Method: Microfocal computed tomography. All specimens were scanned on a Scanco Medical AG μCT 40 system. Images were obtained with an isotropic voxel resolution of 20 microns. A matrix size of 1024×1024 with 1000 projections was utilized for all scans. A total of 1836 slices were scanned for each specimen (the number of slices scanned was determined by the length of the scan needed to cover the entire ankle including the distal tibia). The scan time per specimen was approximately 2.6 hours. The images were then volume rendered using a fixed threshold (at two different thresholds: 255 and 140). The total bone volume and BMD were calculated over the same regions of all the specimens. Micro-CT was performed at Scanco USA, Incorporated.
Finally, the activity of the MetAP-2 inhibitor on the structural preservation of hind joints in rats with established disease was investigated.
The ankles including the distal tibia were scanned using a Scanco Medical AG μCT 40 system (threshold: 255), and the total bone volume and BMD were calculated over the same regions of all specimens.

HFLS-R^A [5] = conditions: in vitro; cited from earlier work
HFLS-R^A [6] = conditions: 100 nM; cited from earlier work
[7] = PG-PS arthritis, 10 mg/kg, threshold 255

CO[C@@H]1[C@H](OC(=O)N[C@@H](C(N)=O)C(C)C)CC[C@]2(CO2)[C@H]1[C@@]1(C)O[C@@H]1CC=C(C)C [MetAP-2 inhibitor, (1-Carbamoyl-2-methyl-propyl)-carbamic acid-(3R,4S,5S,6R)-5-methoxy-4-[(2R,3R)-2-methyl-3-(3-methyl-but-2-enyl)-oxiranyl]-1-oxa-spiro[2,5]oct-6-yl ester]
systemic urinary CTX-I levels corrected for creatinine, versus vehicle (CTX-I): significantly decreased | cytotoxicity [1]: did not induce cytotoxicity | inhibition of proliferation of HUVEC (HUVEC): potently inhibit | total arthritic score versus vehicle (PG-PS-induced arthritis [2]; 1, 5, 10 mg/kg p.o. qod): significantly decreased | Total arthritis score (PG-PS-induced arthritis [2]; 1 mg/kg): 7.00 ± 0.58^B | Bone Resorption score (PG-PS-induced arthritis [2]; 1 mg/kg): 2.05 ± 0.2 | Cartilage erosion score (PG-PS-induced arthritis [2]; 1 mg/kg): 1.10 ± 0.12^B | Cell infiltration score (PG-PS-induced arthritis [2]; 1 mg/kg): 1.85 ± 0.15^A | Pannus formation score (PG-PS-induced arthritis [2]; 1 mg/kg): 2.00 ± 0.14^A | Total arthritis score (PG-PS-induced arthritis [2]; 5 mg/kg): 7.60 ± 0.67^B | Bone Resorption score (PG-PS-induced arthritis [2]; 5 mg/kg): 1.80 ± 0.20^B | Cartilage erosion score (PG-PS-induced arthritis [2]; 5 mg/kg): 1.25 ± 0.18^B | Cell infiltration score (PG-PS-induced arthritis [2]; 5 mg/kg): 2.15 ± 0.18^A | Pannus formation score (PG-PS-induced arthritis [2]; 5 mg/kg): 2.40 ± 0.20^A | Total arthritis score (PG-PS-induced arthritis [2]; 10 mg/kg): 5.83 ± 0.71^B | Bone Resorption score (PG-PS-induced arthritis [2]; 10 mg/kg): 2.00 ± 0.16^B | Cartilage erosion score (PG-PS-induced arthritis [2]; 10 mg/kg): 0.72 ± 0.14^B | Cell infiltration score (PG-PS-induced arthritis [2]; 10 mg/kg): 1.38 ± 0.31^A | Pannus formation score (PG-PS-induced arthritis [2]; 10 mg/kg): 1.72 ± 0.20^A | reversibility of the inhibition of OC differentiation [3]: fully reversible | inhibition of OC differentiation ([3]; concentration ≦0.1 nM): no detectable inhibition | generation of TRAP-positive mononuclear and multinucleated OC ([3]; concentrations at ≦1 nM, 7 days with M-CSF and RANKL): almost completely inhibited | structural integrity of hind joints, three-dimensional micro-CT images (PG-PS-induced arthritis [4]; 10 mg/kg p.o. qod, versus vehicle): protected the structural integrity of the joints and prevented focal bone erosions | BMD (PG-PS-induced arthritis [4]; [7]): 1087 ± 17.44 mg HA/ccm | Bone Volume (Vox-BV) (PG-PS-induced arthritis [4]; [7]): 213.8 ± 5.23 | inhibition of proliferation of HFLS-RA (HFLS-R^A [5]): potently inhibit | induction of apoptosis in HFLS-RA (HFLS-R^A [6]): did not induce apoptosis
